Assay results taken from article PMC10857906, “PROTAC-mediated NR4A1 degradation as a novel strategy for cancer immunotherapy” (The Journal of Experimental Medicine, 2024).

Columns and labels:
[1] = biological target: NR4A1 and VHL (Homo sapiens, UniProt P22736+P40337); experiment: Proximity ligation assay (PLA) for the NR4A1-VHL ternary complex; type: cell-based; set-up: endogenous in cells; host or cells: CHL-1 and A375 human melanoma cells; details: CHL-1 and A375 cells, 500 nM, 16 h, 0.5 μM MG132 pretreatment
Sequence of NR4A1 and VHL (P22736 whole entry): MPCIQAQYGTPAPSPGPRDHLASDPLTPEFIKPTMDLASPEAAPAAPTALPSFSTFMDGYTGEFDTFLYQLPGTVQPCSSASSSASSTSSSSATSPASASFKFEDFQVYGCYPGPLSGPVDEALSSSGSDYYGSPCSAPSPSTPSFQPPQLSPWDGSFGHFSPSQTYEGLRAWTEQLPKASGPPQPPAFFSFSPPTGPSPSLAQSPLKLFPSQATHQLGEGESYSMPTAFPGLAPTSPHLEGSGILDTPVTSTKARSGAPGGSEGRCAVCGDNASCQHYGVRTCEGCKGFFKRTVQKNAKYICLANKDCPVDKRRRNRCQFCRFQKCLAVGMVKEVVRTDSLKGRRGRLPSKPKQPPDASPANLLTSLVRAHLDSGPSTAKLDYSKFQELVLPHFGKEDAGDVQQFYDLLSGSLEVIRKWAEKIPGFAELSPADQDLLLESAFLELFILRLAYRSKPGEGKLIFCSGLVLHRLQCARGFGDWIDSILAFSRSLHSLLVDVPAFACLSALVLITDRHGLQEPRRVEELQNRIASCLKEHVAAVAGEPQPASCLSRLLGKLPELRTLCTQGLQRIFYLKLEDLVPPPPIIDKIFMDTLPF
Sequence of NR4A1 and VHL (P40337 whole entry): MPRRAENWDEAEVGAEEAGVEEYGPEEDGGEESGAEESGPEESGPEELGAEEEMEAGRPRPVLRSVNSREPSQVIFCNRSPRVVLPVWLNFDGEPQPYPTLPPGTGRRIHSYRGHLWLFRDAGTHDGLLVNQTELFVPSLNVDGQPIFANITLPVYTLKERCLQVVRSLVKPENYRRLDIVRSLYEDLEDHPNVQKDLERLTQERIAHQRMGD
Sequence of NR4A1 and VHL (Q15369 whole entry partner): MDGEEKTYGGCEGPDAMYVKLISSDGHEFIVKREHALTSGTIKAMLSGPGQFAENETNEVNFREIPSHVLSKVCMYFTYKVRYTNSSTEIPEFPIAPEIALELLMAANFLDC
Sequence of NR4A1 and VHL (Q15370 whole entry partner): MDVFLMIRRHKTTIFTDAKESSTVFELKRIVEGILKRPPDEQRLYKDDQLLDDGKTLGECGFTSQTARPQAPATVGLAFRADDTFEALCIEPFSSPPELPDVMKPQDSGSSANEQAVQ
Experimental: 5 × 10^4 CHL-1 and A375 cells were cultured in Nunc Lab-Tek Chamber Slide (177402; Thermo Fisher Scientific). The cells were treated with DMSO, 500 nM celastrol, and 500 nM NR-V04 for 16 h with MG132 inhibitor. The PLA was conducted with Duolink In Situ Red Starter Kit Mouse/Rabbit (DUO92101; Sigma-Aldrich) following the standard protocol. Additionally, a non-stain cell group was included as a negative control to account for background signal during PLA assay. The signal was detected using a confocal microscope (LSM 710; Zeiss). Primary antibody: NR4A1 (HPA059742, 2 μg/ml, isotype-rabbit; Sigma-Aldrich) and VHL (MA5-13940, 2 μg/ml, isotype-mouse; Thermo Fisher Scientific).

[2] = biological target: T1, VHL (Homo sapiens, UniProt P40337); experiment: VHL protein level after treatment (immunoblotting); type: cell-based; details: human melanoma cell lines, 16 h
T1 construct: endogenous in cells; host or cells: CHL-1, A375, WM164, M229 human melanoma cells
T1 sequence (P40337 whole entry): as the sequence (P40337 whole entry) above
Experimental: Samples were lysed using radioimmunoprecipitation assay buffer (RIPA) lysis buffer (150 mM NaCl, 5 mM EDTA, 50 mM Tris pH 8.0, 0.5% sodium deoxycholate, 1% NP-40, 0.1% SDS) supplemented with 1 mM dithiothreitol and protease inhibitors. The lysates were separated by SDS-PAGE and analyzed using standard western blotting procedures ([Khan et al., 2019]). Antibodies: human NR4A1 (ab153914, 1:1,000; Abcam), mouse NR4A1 (14-5965-82, 1:1,000; Invitrogen), NR4A2 (AV38753, 1:1,000; Sigma-Aldrich), NR4A3 (TA804893, 1: 1,000; Thermo Fisher Scientific), VHL (68547, 1:1,000; Cell Signaling), β-actin (13E5, 1:5,000; Cell Signaling), β-tubulin (9F3, 1: 5,000; Cell Signaling), and GAPDH (D16H11, 1: 5,000; Cell Signaling) were employed for protein detection.

CC1=C(O)C(=O)C=C2C1=CC=C1[C@@]2(C)CC[C@@]2(C)[C@@H]3C[C@](C)(C(=O)NCCOCCOCCOCCOCC(=O)N[C@H](C(=O)N4C[C@H](O)C[C@H]4C(=O)N[C@@H](C)c4ccc(-c5scnc5C)cc4)C(C)(C)C)CC[C@]3(C)CC[C@]12C [NR-V04]
PLA signals (ternary complex formation NR4A1-VHL) [1]: induced strong PLA signals
VHL protein level [2]: accumulation of VHL protein
